# Test results published in patent publication US5403574A, “Evaluation and treatment of the multidrug resistance phenotype” (priority 1992, dated 1995).
# “Also recorded” adds a separate entry of the source.
# Legend:
# P-glycoprotein = settings: cited from earlier work
# mitochondrial function = settings: typical loading activities; cited from earlier work
# Alex and Alex/A.5 cells = assay: Cell survival / cytotoxicity, Alex and Alex/A.5 cells (sulforhodamine B); assay type: cell-based, human
# Method: (§1) FIG. 5. Cell survival studies and LD50 determination showing cytotoxicity of a ^99 Tc-isonitrile complex that is transported by the P-glycoprotein in vitro. Survival of parental V79 and multidrug resistant LZ cells (A) and parental Alex and multidrug resistant Alex/A.5 cells (B) in increasing concentrations of carrier-added ^99 Tc-MIBI. Methods: Cell survival assays were performed by plating 4,000-20,000 cells per well in 96 well microtiter plates in triplicate in three separate experiments. V79 and LZ cells were grown essentially as described in Example 2 while Alex and Alex/A.5 were grown as described by Goldstein, L., et al., J. Natl. Cancer Inst. 81:116 (1989). Multidrug resistant cells were cultured in drug free media for 72-96 hours prior to culture in ^99 Tc-MIBI. Surviving cells were assayed by staining with sulforhodamine B (Mazzanti, R., et al., J. Cell Pharmacol. 1:50 (1990)) at 72 hours for V79 and LZ cells or 96 hours for Alex and Alex A.5 cells. Survival was expressed as the percentage of surviving cells relative to growth in alpha-MEM media without ^99 Tc-MIBI. […] LD50 determinations were obtained by interpolation from the cell survival curves.
# (§2) Micromolar concentrations of carrier-added 99Tc-MIBI is shown to be cytotoxic in hamster lung fibroblast cells (A) and human carcinoma cells (B) (FIG. 5). […]
# [1] = whole body imaging agent; cited from earlier work
# [2] = system: LZ cells (multidrug resistance P-glycoprotein)
# Method: (§3) Accumulation of Tc-MIBI in LZ cells (highly expressing multidrug resistance) (0) and V79 cells (modestly expressing multidrug resistance) (.cndot.).
# (§4) Cell-associated activity was then determined.
# tumors = settings: human, in vivo; cited from earlier work
# V79 and LZ cells = assay: Cell survival / cytotoxicity, V79 and LZ cells (sulforhodamine B); assay type: cell-based, hamster; settings: 72 hours
# Method: as §1, §2
# [3] = system: V79 cells (multidrug resistance P-glycoprotein)
# Method: as §3, §4
# cells and mitochondria = settings: cited from earlier work
# [4] = system: P-glycoprotein enriched membrane vesicles; settings: multidrug resistant cell vesicles; cited from earlier work
compound,measurement,setting,value
C=C[C@H]1C[N@@]2CC[C@H]1C[C@@H]2[C@@H](O)c1ccnc2ccc(OC)cc12 [Quinidine],Inhibition of photoaffinity labeling of P-glycoprotein by vinblastine analog,P-glycoprotein,inhibited
c1ccc([P+](c2ccccc2)(c2ccccc2)c2ccccc2)cc1 [TPP^+],Toxic effects on mitochondrial function,mitochondrial function,toxic effects on mitochondrial function
"[99Tc].[C-]#[N+]CC(C)(C)OC.[C-]#[N+]CC(C)(C)OC.[C-]#[N+]CC(C)(C)OC.[C-]#[N+]CC(C)(C)OC.[C-]#[N+]CC(C)(C)OC.[C-]#[N+]CC(C)(C)OC [Tc-MIBI, hexakis (2-methoxyisobutyl isonitrile) technetium-99m (I)]",Toxicity in drug-sensitive human Alexander cells compared to multidrug-resistant derivative (Alex/A.5),"Alex and Alex/A.5 cells; Alex vs Alex/A.5, 96 hours",13 fold
same,Cytotoxicity in human carcinoma cells,"Alex and Alex/A.5 cells; micromolar concentrations, carrier-added, 96 hours",cytotoxic
same,Toxic activity at imaging doses,[1],no toxic activity; also recorded: without chemotoxic effects
same,Net accumulation of Tc-MIBI,[2],0.3 fmoles Tc-MIBI/mg protein per nmolar extracellular Tc-MIBI
same,Uptake within known bronchial carcinomas,tumors,uptake
same,Uptake within mediastinal and pulmonary metastasis from thyroid cancer,tumors,uptake
same,Uptake within untreated malignant lung lesions,tumors,uptake
same,Toxicity in drug-sensitive V79 compared to multidrug-resistant derivative (LZ),V79 and LZ cells; V79 vs LZ,11 fold
same,Cytotoxicity in hamster lung fibroblast cells,"V79 and LZ cells; micromolar concentrations, carrier-added",cytotoxic
same,Plateau net accumulation in V79 cells relative to LZ cells,[3],20 fold
CCOC(=O)C1=C(C)NC(C)=C(C(=O)OCCNC(=O)c2ccc(N=[N+]=[N-])cc2)C1c1ccccc1C(F)(F)F (centres unmarked) [azidopine],Inhibition of photoaffinity labeling of P-glycoprotein by vinblastine analog,P-glycoprotein,inhibited
COc1cccc2c1C(=O)c1c(O)c3c(c(O)c1C2=O)C[C@@](O)(C(C)=O)C[C@@H]3O[C@H]1C[C@H](N)[C@H](O)[C@H](C)O1 [daunomycin],Inhibition of photoaffinity labeling of P-glycoprotein by vinblastine analog,P-glycoprotein,inhibited
COC(=O)[C@H]1[C@H]2C[C@@H]3c4[nH]c5cc(OC)ccc5c4CCN3C[C@H]2C[C@@H](OC(=O)c2cc(OC)c(OC)c(OC)c2)[C@@H]1OC [reserpine],Inhibition of photoaffinity labeling of P-glycoprotein by vinblastine analog,P-glycoprotein,inhibited
COC(=O)c1ccccc1-c1c2ccc(=N)cc-2oc2cc(N)ccc12 [rhodamine 123],Toxic effects on mitochondrial function,mitochondrial function,toxic effects on mitochondrial function
same,Toxicity to cells and mitochondria,cells and mitochondria,toxic to cells and mitochondria
CC[C@]1(O)C[C@@H]2CN(CCc3c([nH]c4ccccc34)[C@@](C(=O)OC)(c3cc4c(cc3OC)N(C)[C@H]3[C@@](O)(C(=O)OC)[C@H](OC(C)=O)[C@]5(CC)C=CCN6CC[C@]43[C@@H]65)C2)C1 [vinblastine],Inhibition of labeled vinblastine accumulation in vesicles,[4],inhibited
CC[C@]1(O)C[C@H]2CN(CCc3c([nH]c4ccccc34)[C@@](C(=O)OC)(c3cc4c(cc3OC)N(C=O)[C@H]3[C@@](O)(C(=O)OC)[C@H](OC(C)=O)[C@]5(CC)C=CCN6CC[C@]43[C@@H]65)C2)C1 [vincristine],Inhibition of photoaffinity labeling of P-glycoprotein by vinblastine analog,P-glycoprotein,inhibited
same,Inhibition of labeled vinblastine accumulation in vesicles,[4],inhibited
